We go through one compound from US20090209605A1, “NEMATICIDAL COMPOSITIONS” (Devgen N.V., priority 2004, published 2009).

What all share (type): in vivo
One series relates to Meloidogyne incognita. Nature of the series: Root infestation on agar plate: root knot count on potato microplant roots. The note with it: 60 μM in agar, galls counted 5 weeks after inoculation, four replicates. In short, it runs like this:
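Potato cv. Desirée microplants were grown 2-3 weeks on agar at 20 °C, and compound diffused in from DMSO for 2 days (60 μM in agar). Plates were then inoculated with ~400 axenic M. incognita juveniles. Root galls were counted 5 weeks later in the dark at 20 °C, with four replicates per compound and root toxicity noted.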

In the next series the test system is tomato (cv. Rio Grande). Nature of the series: Pot Assay 2: root development (vigor of roots) of tomato. As to conditions: RATE 0.05 mg; visual value 0 to 10 (10 equal to control). The method, then: Phytotoxicity of compounds as described herein when used as a nematicide, was measured as follows. […] At that moment, plant emergence was assessed for the plants treated with any of the compounds as described herein, by counting the number of plants per compound-concentration.
Vigor of roots was also assessed once the plants are well established so as not to loose plants. To assess vigor of the plants or roots, a visual value ranging from 0 to 10 (0 no vigor, 10 equal to control) was scored per compound-concentration.

In another series the test system is Heterodera nematode. Nature of the series: Pot Assay 3: Heterodera infection of sugar beet, crop vigor and crop height. As to conditions: infested soil. From the text: The soil used in this assay originated from a Heterodera nematode infested sugar plot of which the infestation was confirmed by means of several soil analyses. Each pot was filled up with a soil mixture composed as follows: a) the infested soil was constituted by silt loam soil (about 600 g/pot) mixed with sterile peat (about 600 g/pot) and sterile cork (about 200 g/pot); b) the sterile soil was instead constituted only by sterile peat (1200 g/pot) and sterile cork (200 g/pot).
(§1) Each compound or compound mixture as described herein was tested in 4 different rates with 4 replicates per rate. One pot per replicate was used in which 18 beava sugar beet seeds (variety GEA (KWS)) were sown. After crop germination, the number of plants was reduced to 10 plants. The 4 rates added to the soil of the tested compounds or compound mixtures were 0.05 mg, 0.20 mg, 1 mg and 5 mg. These amounts translate to field application rates respectively as 30, 120, 600 and 3000 g per hectare.
Efficacy of the compounds described herein as nematicide was measured by visual inspection of the crop vigor and the crop height. The crop vigor evaluation is based on a 0-100 scale, where 0 is “no vigor” and 100 is “maximum vigor”. The crop height development is based on a measurement, in cm, per plant, excluding the root system.
Positive control plants were treated with Oxamyl (Vydate 5 G, 5% gr) at a rate of 40 kg fp per ha. Negative controls involved single negative controls (no compound, with nematode infested soil; referenced as “Untreated 1”) and double negative controls (no compound, sterile soil; referenced as “Untreated 2”).

Series [1] relates to sugar beet (variety GEA (KWS)). Nature of the series: Pot Assay 3: phytotoxicity, number of sugar beet plants emerged. As to the method:
as §1
Phytotoxicity assessments were carried by assessing any possible effects of the chemicals on the crop, such as chlorosis, yellowing, stunting, in comparison to the untreated control without nematodes.

The subject of series [2] is root-knot nematode (Meloidogyne spp). The experiment in a line: Nematicide field trial on tomato: root galling and yield. As to conditions: for Average root galling: 0-5 Lamberti scale. As to the method:
Open field tomatoes (Lycopersicon esculentum, variety incas) were grown on sandy soil with a natural root-knot nematode (Meloidogyne spp) population. Soil samples, collected prior to planting, contained on average 113 J2 juveniles per 100 g soil. A program of 5 applications with intervals of about 14 days was started two days after transplantation.
(§2) An experimental pattern at Complete Randomized Blocks with four replicas was adopted. Besides the experimental products, each test also included an untreated control and a treatment with the standard commercial product VYDATE 10L (10%) applied in accordance to label instructions.
The read-outs are the average yield of the marketable tomatoes per plant (Table 7). The level of nematode attack of the root system at the time of harvesting was assessed by means of the lamberti scoring.

The test system is the same in series [3]. The experiment in a line: Nematicide field trial on cucumber: root galling and yield. The note with it: Product Rate 1500 g ai/ha. The method, then:
Open ground grown cucumber (Cucumis sativus cv Carine) were grown on sandy soil with a natural root-knot nematode (Meloidogyne spp) population. Soil samples, collected prior to planting, contained on average 8 J2 juveniles per 100 g soil. A program of 4 applications with intervals of about 14 days was started six days after transplantation.
as §2
[…] The level of nematode attack of the root system at the time of harvesting was assessed by means of the lamberti scoring.

The subject of series [4] is stubby root nematodes (Paratrichodorus), stunt nematodes (Tylenchorhynchus spp.), root lesion nematodes (Pratylenchus spp.) and root knot nematodes …. Nature of the series: Nematicide field trial on carrots: % deformed carrots. The method, then:
Garden carrots were grown in the open field. The soil contained high levels of stubby root nematodes (Paratrichodorus), stunt nematodes (Tylenchorhynchus spp.), root lesion nematodes (Pratylenchus spp.) and root knot nematodes (Meloidogyne spp.).
as §2
In carrots, nematodes cause deformation such as stunting, dwarfing, twisting, splitting and bearding. For these experiments, the total percentage of deformed carrots were considered, as these are not marketed for human consumption and are of no commercial interest.
Three different tests have been performed (Tables 9, 10 and 11), each containing an untreated and commercial reference control. All treatments were statistically different from untreated control.

[5] abbreviates: Product Rate 4 (footnote g ai/ha).
Where [6] appears, read: Product Rate 8 (footnote g ai/ha).

For `CCCCc1c(C)nc(NCC)nc1OS(=O)(=O)N(C)C` [XLIII], in the series on Meloidogyne incognita, the “Root knot count, average of the replicate counts” value is reported as 8. Besides, the “ROOT DEV.” value with tomato (cv. Rio Grande) is 7.8. In addition, the entries for the “crop height (cm)” value in the series on Heterodera nematode (Rate 1 mg) and in the series on Heterodera nematode (Rate 5 mg) were 14 cm and 15 cm, respectively. In addition, the “crop vigor (max 100%)” value amounted to 80% in the series with Heterodera nematode (Rate 1 mg) and 100% with Heterodera nematode (Rate 5 mg). For the same compound, the “# crops emerged (max 18)” value in series [1] (Rate 1 mg) and in series [1] (Rate 5 mg) was 18 in each case. In addition, the entries for the “Average yield of marketable fruits” value in series [2] (setting [5]), in series [2] (setting [6]) and in series [3] were 1.28 kg/plant/pot, 1.25 kg/plant/pot and 8.7 kg/plant/pot, respectively. Moreover, the values for the Average root galling in series [2] (setting [5]), in series [2] (setting [6]) and in series [3] (0-5 Lamberti scale) were 1.1, 1.6 and 1.5, respectively. For the same compound, the “% total deformed” value is on record as 35.53% in series [4] (test of Table 9, Product Rate 500 g ai/ha); 41.34% in series [4] (test of Table 9, Product Rate 1500 g ai/ha); 41.02% in series [4] (test of Table 9, Product Rate 3000 g ai/ha).
